The values below come from patent publication US6355799B1, “Substituted benzene compounds, process for their preparation, and herbicidal and defoliant compositions containing them” (ISK Americas Incorporated, priority 1997, dated 2002).

SMILES strings stand for the structures.

Holding throughout (assay type): in vivo
Data set [1] concerns redroot pigweed (Amaranthus retroflexus, AMARE). Put plainly: Pre-emerge test, greenhouse herbicide activity screening. Conditions: pre-emerge, phytotoxicity rating 0-100 at 14 days after application. In short, it runs like this:
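Visual ratings on a 0-100 scale (0 no damage, 100 all plants dead) were taken at 14 days after treatment. Rates of 15-1000 g ai/ha in acetone, 187 l/ha, were sprayed onto soil one day after planting (pre-emerge) or onto 2-3 leaf plants with 0.25% v/v surfactant (post-emerge).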

In data set [2] the test system is barnyardgrass (Echinochloa crus-galli, ECHCG). The description is as above. As to conditions: pre-emerge, phytotoxicity rating 0-100 at 14 days after application. In short, it runs like this: (§1)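 Sandy loam pots; pre-emerge: sown 1 d pre-spray, surface-watered after, then bottom-watered. Post-emerge: sown 8–21 d before, 2–3 leaf stage, + 0.25% v/v NIS, bottom-watered. Acetone, 187 l/ha track spray, 15–1000 g ai/ha. 0–100 injury score, day 14.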

For data set [3], the system named is green foxtail (Setaria viridis, SETVI). The description is as above. As to conditions: pre-emerge, phytotoxicity rating 0-100 at 14 days after application. In short, it runs like this:
as §1

In data set [4] the test system is ivyleaf morningglory (Ipomoea hederacea, IPOHE). Described as above. As to conditions: pre-emerge, phytotoxicity rating 0-100 at 14 days after application. In short, it runs like this: as §1
The subject of data set [5] is johnsongrass (Sorghum halepense, SORHA). Described as above. As to conditions: pre-emerge, phytotoxicity rating 0-100 at 14 days after application. An outline of the steps: as §1
The test system of data set [6] is lambsquarters (Chenopodium album, CHEAL). Described as above. Conditions: pre-emerge, phytotoxicity rating 0-100 at 14 days after application. An outline of the steps:
as §1

Data set [7] concerns large crabgrass (Digitaria sanguinalis, DIGSA). The data set is described as above. As to conditions: pre-emerge, phytotoxicity rating 0-100 at 14 days after application. An outline of the steps: as §1
For data set [8], the system named is sicklepod (Cassia obtusifolia, CASOB). Described as above. Conditions: pre-emerge, phytotoxicity rating 0-100 at 14 days after application. In short, it runs like this:
as §1

The subject of data set [9] is velvetleaf (Abutilon theophrasti, ABUTH). The description is as above. As to conditions: pre-emerge, phytotoxicity rating 0-100 at 14 days after application. An outline of the steps: as §1
Data set [10] relates to field corn (Zea mays L., var. Dekalb 535, CORN). The data set can be described thus: Pre-emerge test, crop safety. Conditions: crop damage, pre-emerge, phytotoxicity rating 0-100 at 14 days after application. In short, it runs like this: (§2)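 Applied at 15–1000 g ai/ha from acetone in 187 l/ha spray volume. Post-emergence applications included 0.25% v/v non-ionic surfactant and reached plants sown 8–21 days before. Pre-emergence applications were incorporated by surface watering. Efficacy or crop damage was rated on a 0–100 scale after 14 days.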

Data set [11] has as its system upland rice (Oryza sp., var. Tebonnet, RICE). The data set can be described thus: Pre-emerge test, crop safety. Conditions: crop damage, pre-emerge, phytotoxicity rating 0-100 at 14 days after application. An outline of the steps:
as §2

Regarding `CC(C)Oc1c(Cl)cc(Cl)c(-n2nnn(CCCF)c2=O)c1N` [Compound 5-16], the “Pre-emerge Herbicidal Activity AMARE” value in data set [1] (rate 63 g ai/ha) and in data set [1] (rate 250 g ai/ha) was 0 in each case. The “Pre-emerge Herbicidal Activity ECHCG” value in data set [2] (rate 63 g ai/ha) and in data set [2] (rate 250 g ai/ha) was 0 each time. Moreover, the “Pre-emerge Herbicidal Activity SETVI” value in data set [3] (rate 63 g ai/ha) and in [3] (rate 250 g ai/ha) was 0 throughout. In addition, the “Pre-emerge Herbicidal Activity IPOHE” value in [4] (rate 63 g ai/ha) and in [4] (rate 250 g ai/ha) was 0 each time. The “Pre-emerge Herbicidal Activity SORHA” value in data set [5] (rate 63 g ai/ha) and in data set [5] (rate 250 g ai/ha) was 0 in each case. Further, the entries for the “Pre-emerge Herbicidal Activity CHEAL” value in data set [6] (rate 63 g ai/ha) and in [6] (rate 250 g ai/ha) were 0 and 20, respectively. Besides, the “Pre-emerge Herbicidal Activity DIGSA” value in data set [7] (rate 63 g ai/ha) and in data set [7] (rate 250 g ai/ha) was 0 throughout. For the same compound, the “Pre-emerge Herbicidal Activity CASOB” value in data set [8] (rate 63 g ai/ha) and in data set [8] (rate 250 g ai/ha) was 0 each time. In addition, the “Pre-emerge Herbicidal Activity ABUTH” value in data set [9] (rate 63 g ai/ha) and in [9] (rate 250 g ai/ha) was 0 each time. Moreover, the “Pre-emerge Herbicidal Activity CORN” value in data set [10] (rate 63 g ai/ha) and in data set [10] (rate 250 g ai/ha) was 0 throughout. Further, the “Pre-emerge Herbicidal Activity RICE” value in [11] (rate 63 g ai/ha) and in [11] (rate 250 g ai/ha) was 0 each time.
With `COc1c(Cl)cc(F)c(-n2c(=O)n3n(c2=O)CCCC3)c1NC(C)=O` [9-5], the “Pre-emerge Herbicidal Activity AMARE” value in data set [1] (rate 63 g ai/ha) and in [1] (rate 250 g ai/ha) was 100 throughout. The entries for the “Pre-emerge Herbicidal Activity ECHCG” value in [2] (rate 63 g ai/ha) and in data set [2] (rate 250 g ai/ha) were 0 and 30, respectively. For the same compound, the “Pre-emerge Herbicidal Activity SETVI” value in data set [3] (rate 63 g ai/ha) is listed as 20; in data set [3] (rate 250 g ai/ha), 60. The “Pre-emerge Herbicidal Activity IPOHE” value is given as 70 in [4] (rate 63 g ai/ha) and 100 in [4] (rate 250 g ai/ha). The “Pre-emerge Herbicidal Activity SORHA” value worked out at 0 in data set [5] (rate 63 g ai/ha) and 20 in [5] (rate 250 g ai/ha). In addition, the “Pre-emerge Herbicidal Activity CHEAL” value in data set [6] (rate 63 g ai/ha) and in data set [6] (rate 250 g ai/ha) was 100 each time. Besides, the “Pre-emerge Herbicidal Activity DIGSA” value turned out to be 10 in data set [7] (rate 63 g ai/ha) and 40 in data set [7] (rate 250 g ai/ha). Also, the “Pre-emerge Herbicidal Activity CASOB” value in data set [8] (rate 63 g ai/ha) amounted to 10; in data set [8] (rate 250 g ai/ha), 80. Also, the “Pre-emerge Herbicidal Activity ABUTH” value in [9] (rate 63 g ai/ha) and in [9] (rate 250 g ai/ha) was 100 each time. Besides, the “Pre-emerge Herbicidal Activity CORN” value in [10] (rate 63 g ai/ha) amounted to 0; in [10] (rate 250 g ai/ha) it was 10. For the same compound, the “Pre-emerge Herbicidal Activity RICE” value in data set [11] (rate 63 g ai/ha) came to 25; in [11] (rate 250 g ai/ha) it was 60.
